Measurements as given in US9062070B2, “Inhibitors of the renal outer medullary potassium channel” (Merck Sharp & Dohme Corp., priority 2011, dated 2015).

Key:
hROMK (hKir1.1) = hROMK (hKir1.1) (Homo sapiens (Human), UniProt P48048); experiment: Thallium Flux Assay (ROMK channel functional thallium flux, FLIPR-Tetra); type: cell-based; details: HEK293 cells stably expressing hROMK (hKir1.1)
Experimental: HEK293 cells stably expressing hROMK (hKir1.1) were grown at 37° C. in a 10% CO2 humidified incubator in complete growth media: Dulbecco's Modified Eagle Medium supplemented with non-essential amino acids, Penicillin/Streptomycin/Glutamine, G418 and FBS. At >80% confluency, aspirate the media from the flask and rinse with 10 mL Calcium/Magnesium-free PBS. Add 5 mL of 1× trypsin (prepared in Ca/Mg Free PBS) to T-225 flask and return flask to 37° C./CO2 incubator for 2-3 minutes. To dislodge the cell, gently bang the side of the flask with your hand. Triturate the cells completely and then transfer the cells to 25 mL complete media. Centrifuge at 1,500 rpm for 6 min followed by resuspension in complete growth media and determine cell concentration. For typical re-seeding, 4E6 cells/T-225 flask will attain>80% confluency in 4 days. Under ideal growth conditions and appropriate tissue culture practices, this cell line is stable for 40-45 passages.
• FluxOR™ Reagent (Component A) • FluxOR™ Assay Buffer (Component B)—10× Concentrate • PowerLoad™ Concentrate (Component C)—100× Concentrate • Probenecid (Component D)—Lyophilized sample is kept at −20° C. Water soluble, 100× after solubilization in 1 mL water. Store at 4° C. • FluxOR™ Chloride-free Buffer (Component E)—5× Concentrate • Potassium sulfate (K2SO4) Concentrate (Component F)—125 mM in water. Store at 4° C. • Thallium sulfate (Tl2SO4) Concentrate (Component G)—50 mM in water. Store at 4° C. • DMSO (dimethyl sulfoxide, Component H)—1 mL (100%) Reagent Preparation: FluxOR Working Solutions • 1000× FluxOR™ Reagent: Reconstitute a vial of component A in 100 μl DMSO; Mix well; Store 10 μl aliquots at −20° C. • 1× FluxOR™ Assay Buffer: Dilute Component B 10-fold with water; Adjust pH to 7.4 with Hepes/NaOH; Filter and store at 4° C. • Probenecid/Assay Buffer: 100 mL of 1× FluxOR™ Assay Buffer; 1 mL of reconstituted component D; Store at 4° C. • Loading Buffer (per microplate): 10 μl 1000× FluxOR™ Reagent; 100 μl component C; 10 mL Probenecid/Assay Buffer • Compound Buffer (per microplate): 20 mL Probenecid/Assay Buffer; 0.3 mM ouabain (10 mM ouabain in water can be stored in amber bottle/aluminum foil at room temperature); Test compound • 1× FluxOR™ Chloride-Free Buffer: Prepare 1× working solution in water. Can be stored at room temperature • Stimulant Buffer (prepared at 5× final concentration in 1× FluxOR™ Chloride-Free Buffer): 7.5 mM Thallium sulfate and 0.75 mM Potassium sulfate (to give a final assay concentration of 3 mM Thallium/0.3 mM Potassium). Store at 4° C. when not in use. If kept sterile, this solution is good for months. Assay Protocol—
The ROMK channel functional thallium flux assay is performed in 384 wells, using the FLIPR-Tetra instrument. HEK-hKir1.1 cells are seeded in Poly-D-Lysine microplates and kept in a 37° C.-10% CO2 incubator overnight. On the day of the experiment, the growth media is replaced with the FluxOR™ reagent loading buffer and incubated, protected from light, at ambient temperature (23-25° C.) for 90 min. The loading buffer is replaced with assay buffer±test compound followed by 30 min incubation at ambient temperature, where the Thallium/Potassium stimulant is added to the microplate.
• 1. Seed HEK-hKir1.1 cells (50 μl at 20,000 cells/well) in 384-well PDL coated Microplates • 2. Allow cells to adhere overnight in humidified 37° C./10% CO2 incubator • 3. Completely remove cell growth media from microplate and replace with 25 μl loading buffer • 4. Incubate Microplate at room temperature, protected form light, for 90 min • 5. Remove loading buffer and replace with 25 μl 1× Assay Buffer±test compound. • 6. Incubate microplate at room temperature, protected form light, for 30 min • 7. At FLIPR-Tetra 384: Add stimulant (Thallium/Potassium) solution to microplate and monitor fluorescence. Excitation=400 nm, Emission=460 & 580 nm. Collect data for ˜10 min. Data Calculation—

Kir1.1 (ROMK1) = Kir1.1 (ROMK1) (Homo sapiens (Human), UniProt P48048); experiment: Electrophysiology Assay (whole cell voltage clamp, IonWorks Quattro); type: cell-based; details: Chinese hamster ovary cells stably expressing Kir1.1; block during voltage step to 0 mV
Experimental: Block of Kir1.1 (ROMK1) currents was examined by whole cell voltage clamp (Hamill et. al. […] Prior to an experiment, Kir1.1 expression was induced by overnight incubation with 1 mM sodium butyrate. […] After centrifugation, the cell pellet was resuspended in approximately 4.0 mL of bath solution and placed in the IonWorks instrument. The intracellular solution consisted of (in mM): 80 K gluconate, 40 KCl, 20 KF, 3.2 MgCl2, 3 EGTA, 5 Hepes, pH 7.4. […] Amphotericin B (Sigma A-4888) was prepared as a 40 mg/mL solution in DMSO. Voltage protocols and current recordings were performed using the IonWorks HT software/hardware system. […] No correction for liquid junction potentials was used. The test pulse, consisting of a 100 ms step to 0 mV from a holding potential of −70 mV, followed by a 100 ms voltage ramp from −70 mV to +70 mV, was applied before and after a 6 min compound incubation period. Test compounds were prepared by diluting DMSO stock solutions into the bath solution at 3× the final concentration and placed in the instrument in 96-well polypropylene plates. Current amplitudes were measured using the IonWorks software. To assess compound potency, the fractional block during the voltage step to 0 mV was calculated in Microsoft Excel (Microsoft, Redmond, Calif.), and dose-response curves were fitted with Igor Pro 4.0 (WaveMetrics, Lake Oswego, Oreg.).

Chain of Kir1.1 (ROMK1) (P48048 whole entry): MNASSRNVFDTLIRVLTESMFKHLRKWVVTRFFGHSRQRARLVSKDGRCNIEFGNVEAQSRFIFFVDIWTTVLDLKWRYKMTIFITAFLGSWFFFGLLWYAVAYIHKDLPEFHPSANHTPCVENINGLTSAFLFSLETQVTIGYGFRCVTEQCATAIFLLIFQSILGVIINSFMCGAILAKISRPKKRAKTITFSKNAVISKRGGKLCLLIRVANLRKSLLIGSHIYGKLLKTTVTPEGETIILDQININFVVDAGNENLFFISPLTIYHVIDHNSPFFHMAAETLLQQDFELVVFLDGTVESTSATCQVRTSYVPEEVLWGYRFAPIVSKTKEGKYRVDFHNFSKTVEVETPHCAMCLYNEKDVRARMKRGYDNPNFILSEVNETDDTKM
Chain of hROMK (hKir1.1) (P48048 whole entry): as above

SMILES	IC50 (hROMK (hKir1.1)) [µM]	IC50 (Kir1.1 (ROMK1)) [µM]
Cc1c([C@@H]2CN3CCN(C(=O)C4CCc5nc(-n6cnnn6)ncc54)C[C@@H]3CO2)ccc(F)c1C#N (single isomer, unassigned) [Example 2C]	0.12	0.15
Cc1c([C@@H]2CN3CCN(C(=O)C4CCc5nc(-n6cnnn6)ncc54)C[C@@H]3CO2)ccc(F)c1C#N (single isomer, unassigned) [Example 2D]	0.13	0.1
Cc1c([C@@H]2CN3CCN(C(=O)C4CCc5nc(-n6cnnn6)ncc54)C[C@H]3CO2)ccc(F)c1C#N (single isomer, unassigned) [Example 2E]	0.13	–
Cc1c([C@@H]2CN3CCN(C(=O)C4CCc5nc(-n6cnnn6)ncc54)C[C@H]3CO2)ccc(F)c1C#N (single isomer, unassigned) [Example 2F]	0.39	–
Cc1c([C@H]2CN3CCN(C(=O)C4CCc5nc(-n6cnnn6)ncc54)C[C@H]3CO2)ccc(F)c1C#N (single isomer, unassigned) [Example 2G]	0.27	0.13
Cc1c([C@H]2CN3CCN(C(=O)C4CCc5nc(-n6cnnn6)ncc54)C[C@H]3CO2)ccc(F)c1C#N (single isomer, unassigned) [Example 2H]	0.14	0.1
Cc1c([C@H]2CN3CCN(C(=O)C4CCc5cc(-n6cnnn6)ncc54)C[C@H]3CO2)ccc(F)c1C#N (single isomer, unassigned) [Example 35]	0.18	0.11
Cc1c([C@@H]2CN3CCN(C(=O)C4CCc5cc(-n6cnnn6)ncc54)C[C@H]3CN2)ccc(F)c1C#N (single isomer, unassigned) [Example 96A]	0.2	0.1
Cc1c([C@@H]2CN3CCN(C(=O)C4CCc5cc(-n6cnnn6)ncc54)C[C@H]3CN2)ccc(F)c1C#N (single isomer, unassigned) [Example 96B]	> 1	> 1
Cc1c(C2CN3CCN(C(=O)[C@H]4CCc5nc(-n6cnnn6)ncc54)C[C@@H]3CO2)ccc(F)c1C#N (stereo in doubt) [Example 2A, 6-Fluoro-2-methyl-3-[(3S,9aR)-8-{[(5S)-2-(1H-tetrazol-1-yl)-6,7-dihydro-5H-cyclopenta[d]pyrimidin-5-yl]carbonyl}octahydropyrazino[2,1-c][1,4]oxazin-3-yl]benzonitrile]	0.22	0.1
Cc1c([C@H]2CN3CCN(C(=O)[C@@H]4CCc5nc(-n6cnnn6)ncc54)C[C@@H]3CO2)ccc(F)c1C#N [Example 2B, 6-fluoro-2-methyl-3-[(3S,9aR)-8-{[(5R)-2-(1H-tetrazol-1-yl)-6,7-dihydro-5H-cyclopenta[d]pyrimidin-5-yl]carbonyl}octahydropyrazino[2,1-c][1,4]oxazin-3-yl]benzonitrile]	0.35	0.1
Cc1c([C@H]2CN3CCN(C(=O)C4CCc5nc(-n6cnnn6)ncc54)C[C@H]3CO2)ccc2c1COC2=O (some centres unmarked) [Example 3]	0.25	0.53
Cc1c([C@H]2CN3CCN(C(=O)C4CCc5nc(-n6cnnn6)ccc54)C[C@H]3CO2)ccc(F)c1C#N (some centres unmarked) [Example 4]	0.46	0.18
Cc1c([C@H]2CN3CCN(C(=O)C4CCc5nc(-n6cnnn6)ccc54)C[C@H]3CO2)ccc(F)c1C#N (some centres unmarked) [Example 5]	0.17	0.1
Cc1c([C@@H]2CN3CCN(C(=O)C4CCc5nc(-n6cnnn6)ccc54)C[C@H]3CO2)ccc(F)c1C#N (some centres unmarked) [Example 6]	0.24	0.1
Cc1c([C@@H]2CN3CCN(C(=O)C4CCc5nc(-n6cnnn6)ccc54)C[C@H]3CO2)ccc(F)c1C#N (some centres unmarked) [Example 7]	0.14	0.08
Cc1c([C@H]2CN3CCN(C(=O)C4CCCc5nc(-n6cnnn6)ccc54)C[C@H]3CO2)ccc(F)c1C#N (some centres unmarked) [Example 8]	0.35	0.24
Cc1c([C@H]2CN3CCN(C(=O)C4CCCc5nc(-n6cnnn6)ccc54)C[C@H]3CO2)ccc(F)c1C#N (some centres unmarked) [Example 9]	0.61	0.19
Cc1c([C@@H]2CN3CCN(C(=O)C4CCCc5nc(-n6cnnn6)ccc54)C[C@H]3CO2)ccc(F)c1C#N (some centres unmarked) [Example 10]	0.41	0.18
Cc1c([C@@H]2CN3CCN(C(=O)C4CCCc5nc(-n6cnnn6)ccc54)C[C@H]3CO2)ccc(F)c1C#N (some centres unmarked) [Example 11]	0.36	0.24
Cc1c([C@@H]2CN3CCN(C(=O)C4CCCc5nc(-n6cnnn6)ccc54)C[C@@H]3CO2)ccc(F)c1C#N (some centres unmarked) [Example 12]	0.45	0.16
Cc1c([C@H]2CN3CCN(C(=O)C4CCCc5nc(-n6cnnn6)ccc54)C[C@@H]3CO2)ccc(F)c1C#N (some centres unmarked) [Example 13]	0.32	0.26
O=C1OCCc2cc([C@@H]3CN4CCN(C(=O)C5CCCc6nc(-n7cnnn7)ccc65)C[C@H]4CO3)ccc21 (some centres unmarked) [Example 14]	0.47	0.21
Cc1c([C@@H]2CN3CCN(C(=O)C4CCc5nc(-n6cnnn6)ccc54)C[C@H]3CO2)csc1C#N (some centres unmarked) [Example 15]	0.54	0.06
N#Cc1c(F)ccc([C@@H]2CN3CCN(C(=O)C4CCc5nc(-n6cnnn6)ccc54)C[C@H]3CO2)c1F (some centres unmarked) [Example 18]	0.4	0.11
N#Cc1c(F)ccc([C@H]2CN3CCN(C(=O)C4CCc5nc(-n6cnnn6)ccc54)C[C@H]3CO2)c1F (some centres unmarked) [Example 19]	0.42	0.09
Cc1c(C#N)cccc1[C@@H]1CN2CCN(C(=O)C3CCc4nc(-n5cnnn5)ccc43)C[C@H]2CO1 (some centres unmarked) [Example 71]	–	0.12
Cc1c(C#N)cccc1[C@@H]1CN2CCN(C(=O)C3CCc4cc(-n5cnnn5)ncc43)C[C@@H]2CO1 (some centres unmarked) [Example 94]	0.29	–
O=C1OCc2c1ccc([C@@H]1CN3CCN(C(=O)C4CCc5nc(-n6cnnn6)ccc54)C[C@H]3CO1)c2C1CC1 (some centres unmarked) [Example 95]	0.18	–
